Measurements as given in patent US11634451B2, “Method for the site-specific enzymatic labelling of nucleic acids in vitro by incorporation of unnatural nucleotides” (The Scripps Research Institute, priority 2013, dated 2023).

Assays:
T7 RNA polymerase = T7 RNA polymerase (Escherichia phage T7, UniProt P00573); settings: ribonucleotide triphosphates, FIG. 7
[1] = PCR incorporation of d5SICS α-thiotriphosphate opposite dNaM; assay type: biochemical; settings: standard PCR
Protocol: The amplification efficiency and fidelity of incorporation of d(5SICS-αS)TP is greater than 99% and virtually identical to results obtained with d5SICS. To functionalize this unnatural base pair, we reacted the site-specifically incorporated phosphorothioate bond with iodoacetyl-PEG2-biotin to label the DNA duplex with the biotin functionality.^8 To characterize this site-specific adduct, we incubated it in the presence of streptavidin and then quantified the functionalization by gel shift assay. We were able to convert 60-70% of the phosphorothioate bond to the functionalized derivative, which is a standard efficiency (70%) for labeling protocols previously reported in literature (See Fidanza, J. A.; Ozaki, H.; McLaughlin, L. W., Site-specific labeling of DNA sequences containing phosphorothioate diesters. J. Am. Chem. Soc. […], 114 (14), 5509-5517.). These conjugated derivatives show high stability under conditions typical for heat denaturation of DNA duplexes, i.e. at 50° C. overnight within the range of pH 6.0-8.3 (<10% decomposition), as well as for at 95° C. for 3 minutes at pH 8.3 (<5% decomposition). We envision that the phosphorothioate strategy can be equally well employed with other unnatural base pairs, including d5SICS-dMMO2 and d5SICS-dNaM.

T7 RNA polymerase, sequence (P00573 whole entry): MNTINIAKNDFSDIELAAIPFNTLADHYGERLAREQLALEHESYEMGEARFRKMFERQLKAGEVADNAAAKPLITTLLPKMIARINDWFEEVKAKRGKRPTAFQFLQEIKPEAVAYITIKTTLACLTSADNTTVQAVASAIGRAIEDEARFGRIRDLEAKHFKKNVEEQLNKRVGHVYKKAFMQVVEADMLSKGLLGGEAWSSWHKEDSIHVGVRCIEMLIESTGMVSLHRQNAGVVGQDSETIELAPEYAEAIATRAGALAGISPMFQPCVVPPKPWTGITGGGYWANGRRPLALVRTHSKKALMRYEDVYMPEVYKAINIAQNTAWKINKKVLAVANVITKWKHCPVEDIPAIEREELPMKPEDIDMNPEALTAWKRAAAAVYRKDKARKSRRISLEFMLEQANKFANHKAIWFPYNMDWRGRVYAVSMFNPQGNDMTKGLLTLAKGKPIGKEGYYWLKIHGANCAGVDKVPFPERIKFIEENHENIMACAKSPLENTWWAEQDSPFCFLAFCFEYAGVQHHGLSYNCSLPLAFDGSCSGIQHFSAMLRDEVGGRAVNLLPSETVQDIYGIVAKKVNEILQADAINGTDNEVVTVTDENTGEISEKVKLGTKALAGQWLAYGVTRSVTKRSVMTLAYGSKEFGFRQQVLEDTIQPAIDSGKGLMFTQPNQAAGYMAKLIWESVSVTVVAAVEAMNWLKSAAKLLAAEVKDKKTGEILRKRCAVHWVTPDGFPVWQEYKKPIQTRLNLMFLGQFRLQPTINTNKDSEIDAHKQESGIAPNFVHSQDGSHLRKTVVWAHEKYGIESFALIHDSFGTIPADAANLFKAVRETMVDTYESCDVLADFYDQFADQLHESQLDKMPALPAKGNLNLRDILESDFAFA

SMILES	transcription into RNA (T7 RNA polymerase)	amplification efficiency and fidelity of incorporation [1]
COc1cc(C)c(C#CCNC(=O)C(Cl)Cl)cc1[C@@H]1O[C@H](COP(=O)(O)OP(=O)(O)OP(=O)(O)O)[C@@H](O)[C@H]1O [MMO2^PA]	high efficiency and fidelity	–
Cc1ccc2c(=S)n([C@H]3C[C@H](O)[C@@H](COP(O)(=S)OP(=O)(O)OP(=O)(O)O)O3)ccc2c1 (some centres unmarked) [d(5SICS-αS)TP]	–	greater than 99%
